Test results published in US9416099B2 (priority 2010, dated 2016).

What was measured:
Pseudomonas aeruginosa = format: cell-based
[1] = tested on: Pseudomonas aeruginosa and Staphylococcus aureas; format: cell-based
Staphylococcus aureas = format: cell-based

## CCCCCC/C=C/CCCCCCCC[N+](C)(C)Cc1ccccc1 [C16-17, C16 Amine Benzyl Quat]
Pseudomonas aeruginosa
  % Kill, Pseudomonas aeruginosa, 400 ppm: 39.4%
  % Kill, Pseudomonas aeruginosa, DI water: 42.6%
[1]
  Overall Rating: superior
Staphylococcus aureas
  % Kill, Staphylococcus aureas, 400 ppm: 42.5%
  % Kill, Staphylococcus aureas, DI water: 48.1%

## C[N+](C)([O-])CCCNC(=O)CCCCCCC/C=C/CCCCCCCC(=O)NCCC[N+](C)(C)CC(=O)[O-] [C18-37, C18 DiDMAPA Betaine AO]
other
  Adjuvant 1 h, mL separation: 0 mL
  Anionic 1 h, mL separation: 0 mL
  Nonionic 1 h, mL separation: 0 mL
  Adjuvant 24 h, mL separation: 0 mL
  Anionic 24 h, mL separation: 0 mL

## C[N+](C)(CCCNC(=O)CCCCCCC/C=C/CCCCCCCC(=O)NCCC[N+](C)(C)Cc1ccccc1)Cc1ccccc1.[Cl-].[Cl-] [Mix-65, C18 DiDMAPA Benzyl Quat]
Pseudomonas aeruginosa
  % Kill, Pseudomonas aeruginosa, 400 ppm: 26.1%
  % Kill, Pseudomonas aeruginosa, DI water: 30.5%
[1]
  Overall Rating: good
Staphylococcus aureas
  % Kill, Staphylococcus aureas, 400 ppm: 22.1%
  % Kill, Staphylococcus aureas, DI water: 55.3%

## C[N+](C)(C)CCCNC(=O)CCCCCCC/C=C/CCCCCCCC(=O)NCCC[N+](C)(C)[O-] [C18-35, C18 DiDMAPA Quat AO]
Pseudomonas aeruginosa
  % Kill, Pseudomonas aeruginosa, 400 ppm: 34.4%
  % Kill, Pseudomonas aeruginosa, DI water: 29.3%
[1]
  Overall Rating: good
Staphylococcus aureas
  % Kill, Staphylococcus aureas, 400 ppm: 35.7%
  % Kill, Staphylococcus aureas, DI water: 55.1%

## C[N+](C)(C)CCCNC(=O)CCCCCCC/C=C/CCCCCCCC(=O)NCCC[N+](C)(C)C [C18-27, C18 DiDMAPA DiQuat]
Pseudomonas aeruginosa
  % Kill, Pseudomonas aeruginosa, 400 ppm: 19.8%
  % Kill, Pseudomonas aeruginosa, DI water: 38.9%
[1]
  Overall Rating: good
Staphylococcus aureas
  % Kill, Staphylococcus aureas, 400 ppm: 17.7%
  % Kill, Staphylococcus aureas, DI water: 55.4%

## CN(C)CCCNC(=O)CCCCCCC/C=C/CCCCCCCC(=O)NCCC[N+](C)(C)CC(=O)[O-] [Mix-36, C18 DiDMAPA MonoBetaine]
other
  Anionic 1 h, mL separation: 0 mL
  Nonionic 1 h, mL separation: 0 mL
  Anionic 24 h, mL separation: 0 mL
  Nonionic 24 h, mL separation: 0 mL

## C[N+](C)([O-])CCCNC(=O)CCCCCCC/C=C/CCCCCCCC(=O)NCCC[N+](C)(C)CC(=O)[O-] [Mix-37, C18 DiDMAPA Betaine AO]
other
  Anionic 1 h, mL separation: 0 mL
  Nonionic 1 h, mL separation: 0 mL
  Adjuvant 24 h, mL separation: 0.5 mL
  Nonionic 24 h, mL separation: 0 mL

## C=CCCCCCCCC(=O)NCCC[N+](C)(C)C [C10-18, C10 DMAPA Quat]
Pseudomonas aeruginosa
  % Kill, Pseudomonas aeruginosa, 400 ppm: 28.9%
  % Kill, Pseudomonas aeruginosa, DI water: 29.6%
[1]
  Overall Rating: good
Staphylococcus aureas
  % Kill, Staphylococcus aureas, 400 ppm: 71.8%
  % Kill, Staphylococcus aureas, DI water: 75.9%

## CN(C)CCCNC(=O)CCCCCCC/C=C/CCCCCCCC(=O)NCCC[N+](C)(C)C [Mix-34, C18 DiDMAPA MonoQuat]
Pseudomonas aeruginosa
  % Kill, Pseudomonas aeruginosa, 400 ppm: 24.1%
  % Kill, Pseudomonas aeruginosa, DI water: 47.5%
[1]
  Overall Rating: good
Staphylococcus aureas
  % Kill, Staphylococcus aureas, 400 ppm: 28.6%
  % Kill, Staphylococcus aureas, DI water: 57.5%

## CC/C=C/CCCCCCCC(=O)NCCC[N+](C)(C)CC(=O)[O-] [C12-22, C12 DMAPA Betaine]
other
  Adjuvant 1 h, mL separation: 0 mL
  Anionic 1 h, mL separation: 0 mL
  Nonionic 1 h, mL separation: 0 mL
  Adjuvant 24 h, mL separation: 0 mL
  Anionic 24 h, mL separation: 0 mL

## CC/C=C/CCCCCCCC(=O)NCCC[N+](C)(C)CC(O)CS(=O)(=O)[O-] (stereo not drawn) [C12-24, C12 DMAPA Sulfobetaine]
other
  Adjuvant 1 h, mL separation: 0 mL
  Anionic 1 h, mL separation: 0 mL
  Nonionic 1 h, mL separation: 0.25 mL
  Adjuvant 24 h, mL separation: 0 mL
  Anionic 24 h, mL separation: 0 mL
  Nonionic 24 h, mL separation: 1 mL

## C=CCCCCCCCC(=O)NCCC[N+](C)(C)Cc1ccccc1.[Cl-] [C10-31, C10 DMAPA Benzyl Quat]
Pseudomonas aeruginosa
  % Kill, Pseudomonas aeruginosa, 400 ppm: 47.4%
  % Kill, Pseudomonas aeruginosa, DI water: 47.5%
[1]
  Overall Rating: superior
Staphylococcus aureas
  % Kill, Staphylococcus aureas, 400 ppm: 65.5%
  % Kill, Staphylococcus aureas, DI water: 79.7%

## C=CCCCCCCCC[N+](C)(C)C [C10-42, C10 Amine DMS Quat]
other
  Adjuvant 1 h, mL separation: 0 mL
  Anionic 1 h, mL separation: 0 mL
  Adjuvant 24 h, mL separation: 0 mL
  Anionic 24 h, mL separation: 0 mL

## COC(=O)CCCCCCC/C=C/CCCCCCCC(=O)NCCC[N+](C)(C)CC(=O)[O-] [Mix-48, C18 Ester DMAPA Betaine]
other
  Adjuvant 1 h, mL separation: 0 mL
  Anionic 1 h, mL separation: 0 mL
  Nonionic 1 h, mL separation: 0 mL
  Adjuvant 24 h, mL separation: 0 mL
  Anionic 24 h, mL separation: 0 mL
  Nonionic 24 h, mL separation: 0.5 mL

## CC/C=C/CCCCCCCC(=O)NCCC[N+](C)(C)C [C12-18]
Pseudomonas aeruginosa
  % Kill, Pseudomonas aeruginosa, 400 ppm: 40.5%
  % Kill, Pseudomonas aeruginosa, DI water: 58.7%
[1]
  Overall Rating: good
Staphylococcus aureas
  % Kill, Staphylococcus aureas, 400 ppm: 66.3%
  % Kill, Staphylococcus aureas, DI water: 42.4%

## C[N+](C)(C)CCCNC(=O)CCCCCCC/C=C/CCCCCCCC(=O)NCCC[N+](C)(C)CC(=O)O [Mix-38, C18 DiDMAPA Betaine Quat]
other
  Adjuvant 1 h, mL separation: 0.5 mL
  Nonionic 1 h, mL separation: 0 mL
  Adjuvant 24 h, mL separation: 0.5 mL
  Nonionic 24 h, mL separation: 0 mL

## C=CCCCCCCCC(=O)NCCC[N+](C)(C)CC(=O)[O-] [C10-22, C10 DMAPA Betaine]
other
  Adjuvant 1 h, mL separation: 0 mL
  Anionic 1 h, mL separation: 0 mL
  Adjuvant 24 h, mL separation: 0 mL
  Anionic 24 h, mL separation: 0 mL
  Nonionic 24 h, mL separation: 0.5 mL

## C[N+](C)(CCCNC(=O)CCCCCCC/C=C/CCCCCCCC(=O)NCCC[N+](C)(C)CC(O)CS(=O)(=O)[O-])CC(O)CS(=O)(=O)[O-] (stereo not drawn) [Mix-31, C18 DiSulfobetaine]
other
  Adjuvant 1 h, mL separation: 0 mL
  Anionic 1 h, mL separation: 0 mL
  Nonionic 1 h, mL separation: 0 mL
  Adjuvant 24 h, mL separation: 0 mL
  Anionic 24 h, mL separation: 0 mL

## CN(C)CCCNC(=O)CCCCCCC/C=C/CCCCCCCC(=O)NCCC[N+](C)(C)CC(=O)[O-] [C18-36, C18 DiDMAPA MonoBetaine]
other
  Adjuvant 1 h, mL separation: 0 mL
  Anionic 1 h, mL separation: 0 mL
  Nonionic 1 h, mL separation: 0 mL
  Adjuvant 24 h, mL separation: 0 mL
  Anionic 24 h, mL separation: 0 mL

## C[N+](C)(CCCNC(=O)CCCCCCCC=CCCCCCCCC(=O)NCCC[N+](C)(C)CC(=O)[O-])CC(=O)[O-] (mixture of isomers) [Mix-32, C18 DiBetaine]
other
  Adjuvant 1 h, mL separation: 0 mL
  Anionic 1 h, mL separation: 0 mL
  Nonionic 1 h, mL separation: 0 mL
  Adjuvant 24 h, mL separation: 0 mL
  Anionic 24 h, mL separation: 0 mL

## C[N+](C)(CCCNC(=O)CCCCCCC/C=C/CCCCCCCC(=O)NCCC[N+](C)(C)Cc1ccccc1)Cc1ccccc1.[Cl-].[Cl-] [C18-65, C18 DiDMAPA Benzyl Quat]
Pseudomonas aeruginosa
  % Kill, Pseudomonas aeruginosa, 400 ppm: 24.7%
  % Kill, Pseudomonas aeruginosa, DI water: 30.4%
[1]
  Overall Rating: good
Staphylococcus aureas
  % Kill, Staphylococcus aureas, 400 ppm: 20.6%
  % Kill, Staphylococcus aureas, DI water: 55.6%

## C=CCCCCCCCC(=O)NCCC[N+](C)(C)CC(O)CS(=O)(=O)[O-] (stereo not drawn) [C10-24, C10 DMAPA Sulfobetaine]
other
  Adjuvant 1 h, mL separation: 0 mL
  Anionic 1 h, mL separation: 0 mL
  Nonionic 1 h, mL separation: 0.5 mL
  Adjuvant 24 h, mL separation: 0 mL
  Anionic 24 h, mL separation: 0 mL
  Nonionic 24 h, mL separation: 0.5 mL

## CCCCCC/C=C/CCCCCCCC(=O)NCCC[N+](C)(C)CC(=O)[O-] [C16-13, C16 DMAPA Betaine]
other
  Anionic 1 h, mL separation: 0 mL
  Anionic 24 h, mL separation: 0.25 mL
